Source: patent US20070087977A1, “METHODS AND COMPOSITIONS FOR TREATING PAIN” (priority 2004, published 2007)
Like-named read-outs stand apart in the source and are kept apart here.

Assays:
[1] = test system: mdr1a (P-gP) knockout mouse; conditions: same doses, cited from earlier work
[2] = test system: Healthy subjects undergoing third molar removal; experiment: Quercetin ameliorates CNS effects of oxycodone in an acute pain model (third molar removal); type: in vivo, human
Procedure: Opioids frequently produce adverse CNS side effects in ambulatory settings, providing a rationale for improving opioid analgesia by minimizing adverse effects. […] Healthy subjects (N=65) undergoing third molar removal are randomly allocated to receive 500 mg oral quercetin or matching placebo at 1 hr prior to surgery. […] Total Nausea and Vomiting Score (TNVS) is calculated for the time from dosing through 24 hr.

[3] = test system: adult subjects with chronic pain; experiment: Human study of the effects of oral quercetin (Q) and analgesics on sedation, concentration and pain; type: in vivo
Procedure: An empiric trial on the effects of oral quercetin (Q) on sedation, concentration, and pain was conducted. Inclusion criteria included ongoing pain of at least 4/10 on the Likert scale, poor tolerance of current analgesic regimen (complaints of sedation, dizziness, inability to focus), and willingness to complete daily diaries.
Approximately 16 adult subjects with chronic pain were screened and 9 subjects were admitted to the trial. Their pain disorders included peripheral neuropathy (2), facial pain (2), cervical radiculopathy (2), lumbar spine disease (3). Their pre-existing medications included short acting opioids (Vicodin TID, Tramadol 50 mg Q4-6), high dose, long acting opioids (OxyContin 240 mg, Methadone 400 mg), Gabapentin (900 mg and 2700 mg), Ativan, Flexeril, and Soma 350 mg. Seven of the subjects were using at least two analgesic medications. Two subjects were using no current medications because of prior histories of sedation and dizziness during opioid trials.
Q (Sigma) 500 mg per gel capsule was compounded and supplied to all subjects by overnight mail. Subjects were instructed to complete daily diaries for 7 days and continue their baseline medications and regular activities. On approximately the 7th day, they were asked to begin twice daily dosing of 2 Q (1000 mg) capsules (total daily dose of Q, 2000 mg). Diaries were completed for 7 days. Individual diaries included rating sleep interference, focus, pain now, and worst pain over the prior 24 hours. Subjects were instructed that concomitant pain medications should not be altered without speaking with the investigator. Subjects were advised that they would be contacted by telephone every day or every other day to assess progress in the trial and any side effects associated with the addition of Q. At the end of the trial, patients were interviewed. They were asked to rate their satisfaction with the study medication (−2-+2) and its ability to modulate the CNS effects of their pain medications.

SMILES	sensitivity to fetal cleft palate ([1]; heterozygous (+/-) mice)	sensitivity to fetal cleft palate ([1]; homozygous (+/+) mice)	median time to request for a second analgesic ([2]; 500 mg oral quercetin + 10 mg oral oxycodone)	mean pain intensity ([2]; 500 mg oral quercetin + 10 mg oral oxycodone, compared with placebo group)	oxycodone plasma concentrations, quercetin vs placebo group ([2]; prior to surgery, at 1 hr, at 4 hr)	sleep rating (1 perfect sleep, 10 worst) ([3]; after taking Q, all patients, FIG. 5)	concentration rating (1 perfect concentration, 10 worst) ([3]; after taking Q, all patients, FIG. 6)	worst pain in the last 24 hrs (NPRS, 1 no pain, 10 worst) ([3]; after taking Q, all patients, FIG. 7)	pain at the time the patients were called (pain now) ([3]; after taking Q, all patients, FIG. 8)	global assessment (scale of -2 to 2) ([3]; all patients on opiate or MSD and modulator (Q), FIG. 15)	CNS activation noted ([3]; opioid users taking Q)	central withdrawal noted (number of opioid users) ([3]; opioid users taking Q)	number of patients reporting 2 in global assessment ([3]; scale of -2 to 2, FIG. 15)	number of patients reporting -2 in global assessment ([3]; scale of -2 to 2, FIG. 15)	pain on the scale from 1-10 (worst pain in last 24 hrs, pain at time of call) ([3]; two patients not on baseline meds, poor tolerance of systemic medications, FIGS. 13 and 14)
CC[C@H](C)[C@H]1O[C@]2(C=C[C@@H]1C)C[C@@H]1C[C@@H](C/C=C(\C)[C@@H](O[C@H]3C[C@H](OC)[C@@H](O[C@H]4C[C@H](OC)[C@@H](O)[C@H](C)O4)[C@H](C)O3)[C@@H](C)/C=C/C=C3\CO[C@@H]4[C@H](O)C(C)=C[C@@H](C(=O)O1)[C@]34O)O2 [avermectin]	less sensitive	insensitive	–	–	–	–	–	–	–	–	–	–	–	–	–
O=c1c(O)c(-c2ccc(O)c(O)c2)oc2cc(O)cc(O)c12 [quercetin]	–	–	120 min	consistently lower	do not differ	overall improvement	overall improvement	overall improvement	overall improvement	overall improvement in their condition	all the 4 opioid users	3	three	none	brought the pain down
